Experimental data from patent US11866416B2, “Streptococcus mutans glucosyl transferase inhibitors for dental caries therapy” (UAB Research Foundation, priority 2018, dated 2024).
Values after ≈ are worked out from the molar mass of the structure shown. Read-outs that look alike come from different tables or passages of the source. Marks after values point to notes of the source that are not given here.

Columns and labels:
S. mutans = assay: microbe, parasite or virus in culture; format: cell-based, Streptococcus mutans; settings: for Selectivity: growth versus biofilm
Procedure: Cell viability of S. mutans, S. gordonii, S. sanguinis, Aggregatibacter actinomycetemcomitans and Actinomyces. […] The number of colony-forming units (CFU) per milliliter of each sample treated with selected compounds at different concentrations was enumerated after incubation for 24 h at 37° C. and compared to the values obtained from the DMSO control group. Overnight broth cultures were transferred by 1:50 dilutions into fresh THB medium and were allowed to grow until mid-exponential phase (OD470 nm 0.6) before transfer to 96-well plates containing desired concentration of the compound. After 16 h incubation, bacterial growth was measured at OD470, and normalized to the DMSO control (100%).
Cell viability of S. mutans and commensal S. gordonii and S. sanguinis. Effects of lead small molecules on cell viability were examined. The number of colony-forming units (CFU) per milliliter for each compound at different concentrations was determined after incubation for 24 h at 37° C. and compared to the values obtained from the DMSO control group.
Cell viability of S. mutans and commensal S. gordonii and S. sanguinis. […] DMSO served as a control group and provided a relative comparison for the number of colony-forming units (CFU) per milliliter for each compound at different concentrations was determined after incubation for 24 h at 37° C. The final concentration of DMSO used in the assays was 1%.

S. mutans biofilm = S. mutans biofilm formation and inhibition assay (96-well plates, crystal violet); format: cell-based, Streptococcus mutans
Procedure: Biofilm assays using 96-well flat-bottom polystyrene microtiter plates were performed to evaluate S. mutans biofilm formation at various conditions as described (Liu et al. (2011) Antimicrobial Agents and Chemotherapy 55, 2679; Zhang et al. (2015) International Journal of Antimicrobial Agents 46, 174), the disclosures of which are incorporated herein by reference in their entirety). Each assay was replicated three times. Compounds that inhibited biofilm formation at minimum concentration (MBIC) were determined by serial dilutions.
S. mutans biofilm formation and inhibition assays. […] Each assay was replicated three times. Minimum biofilm inhibitory concentration (MBIC) of compounds was determined by serial dilutions.
S. mutans biofilm formation and inhibition assays. Biofilm assays using 96-well flat-bottom polystyrene microtiter plates were performed to evaluate S. mutans biofilm formation at various conditions as described. Each assay was replicated […]. Compounds that inhibited 50% biofilm formation were determined by serial dilutions.
S. mutans biofilm formation and inhibition assays. A well-established protocol to study S. mutans biofilm formation in 96-well flat-bottom polystyrene microtiter plates was used, in triplicate (Mattos-Graner, R. O.; Napimoga, M. H.; Fukushima, K.; Duncan, M. J.; Smith, D. J., Comparative analysis of Gtf isozyme production and diversity in isolates of Streptococcus mutans with different biofilm growth phenotypes. Journal of clinical microbiology 2004, 42 (10), 4586-4592). The stock solutions were made up in 100% DMSO, and final concentration of DMSO used in the assays was 1%. Minimum biofilm inhibitory concentration (MBIC) of compounds was determined by serial dilutions.

[1] = Streptococcus mutans, Table 4, stilbenes, average of at least 5 measurements, NI = no inhibition, read-out: Growth MIC50
[2] = Table 8, stilbenes, average of at least 5 measurements, NI = no inhibition
[3] = Streptococcus mutans, Table 4, stilbenes, NI = no inhibition, read-out: Biofilm IC50
[4] = Streptococcus mutans, Table 8, stilbenes, NI = no inhibition, read-out: Biofilm IC50
[5] = Streptococcus mutans, Table 2, >300 = no inhibition up to 300 μM, read-out: Growth Inhibition MIC50
[6] = Streptococcus mutans, Table 2, read-out: Biofilm Inhibition IC50
[7] = Streptococcus mutans, Table 3, >300 = no inhibition up to 300 μM, NI = no inhibition up to 400 μM, read-out: Growth Inhibition MIC50
[8] = Streptococcus mutans, Table 3, read-out: Biofilm Inhibition IC50

COc1cc(/C=C/c2ccc(OC)c(O)c2)cc(OC)c1 [Entry 9]
MIC50 (S. mutans; [1]): 137 ± 6 µM (≈ 39.2 µg/mL) | Selectivity (S. mutans; Table 4, stilbenes): 1.1 | Growth MIC50 (S. mutans; [2]): 137 ± 6 µM | Selectivity (S. mutans; Table 8, stilbenes): 1.1 | IC50 (S. mutans biofilm; [3]): 122 ± 11 µM | IC50 (S. mutans biofilm; [4]): 122 ± 11 µM

O=C(/C=C/c1ccc(O)c(O)c1)O[C@@H]1C[C@](O)(C(=O)O)C[C@@H](O)[C@H]1O [Entry 10]
MIC50 (S. mutans; [1]): 1720 ± 53 µM (≈ 611 µg/mL) | Selectivity (S. mutans; Table 4, stilbenes): 3.3 | Growth MIC50 (S. mutans; [2]): 1724 ± 53 µM | Selectivity (S. mutans; Table 8, stilbenes): 3.3 | IC50 (S. mutans biofilm; [3]): 518 ± 85 µM | IC50 (S. mutans biofilm; [4]): 518 ± 85 µM

C[n+]1ccc(/C=C/c2ccc(O)c(O)c2)c2ccccc21 [Entry 11]
MIC50 (S. mutans; [1]): > 400 µM | Selectivity (S. mutans; Table 4, stilbenes): 4.0 | MIC50 (S. mutans; Table 8, stilbenes, average of at least 5 measurements, NI = no inhibition, read-out: Growth MIC50): >400 µM | Selectivity (S. mutans; Table 8, stilbenes): 4.0 | IC50 (S. mutans biofilm; [3]): 104 ± 6 µM | IC50 (S. mutans biofilm; [4]): 104 ± 6 µM

COc1ccc(/C=C/c2cc(O)cc(O[C@@H]3O[C@H](CO)[C@@H](O)[C@H](O)[C@H]3O)c2)cc1O [Entry 12]
MIC50 (S. mutans; [1]): 134 ± 11 µM (≈ 56.3 µg/mL) | Selectivity (S. mutans; Table 4, stilbenes): 1.2 | Growth MIC50 (S. mutans; [2]): 134 ± 11 µM | Selectivity (S. mutans; Table 8, stilbenes): 1.2 | IC50 (S. mutans biofilm; [3]): 106 ± 11 µM | IC50 (S. mutans biofilm; [4]): 106 ± 11 µM

NC(=O)c1ccccc1NC(=O)c1ccc2ncoc2c1 [HW-1-179]
MIC50 (S. mutans; [5]): > 300 µM | IC50 (S. mutans biofilm; [6]): 65.1 µM

COc1ccc(/C=C2\Oc3ccccc3C2=O)cc1OC [LC-I-197]
MIC50 (S. mutans; [7]): 37.1 ± 6 µM (≈ 10.5 µg/mL) | IC50 (S. mutans biofilm; [8]): 8.4 ± 1 µM

COc1ccc(/C=C2\Oc3ccccc3C2=O)c(OC)c1 [LC-I-203]
MIC50 (S. mutans; [7]): > 300 µM | IC50 (S. mutans biofilm; [8]): 40.6 ± 3 µM

COc1cc(OC)c(OC)cc1/C=C1\Oc2ccccc2C1=O [LC-I-205]
MIC50 (S. mutans; [7]): > 300 µM | IC50 (S. mutans biofilm; [8]): 8.3 ± 1 µM

O=C1/C(=C/c2ccccc2)Oc2ccccc21 [LC-I-206]
MIC50 (S. mutans; [7]): > 300 µM | IC50 (S. mutans biofilm; [8]): 320 ± 21 µM

O=C(/C=C/c1ccc(O)c(O)c1)c1ccc(O)c(O)c1O [Okanin (natural), Okanin]
MIC50 (S. mutans; [7]): 534 ± 17 µM (≈ 154 µg/mL) | IC50 (S. mutans biofilm; [8]): 64 ± 7 µM

COc1cc(-c2[o+]c3cc(O)cc(O)c3cc2O)cc(O)c1O [PAC]
MIC50 (S. mutans; [7]): 274 ± 45.8 µM | IC50 (S. mutans biofilm; [8]): 61.2 ± 2.3 µM

Oc1cc(O)c2cc(O)c(-c3cc(O)c(O)c(O)c3)[o+]c2c1 [PBF]
MIC50 (S. mutans; [7]): 262 ± 21 µM | IC50 (S. mutans biofilm; [8]): 135 ± 5.6 µM

O=C(/C=C/c1ccc(O)cc1O)c1cccc(O)c1 [RZ-1-86]
MIC50 (S. mutans; [7]): 469 ± 16 µM (≈ 120 µg/mL) | IC50 (S. mutans biofilm; [8]): 32 ± 5 µM

O=C(/C=C/c1ccc(O)c(O)c1)c1ccccc1O [RZ-1-90]
MIC50 (S. mutans; [7]): > 300 µM | IC50 (S. mutans biofilm; [8]): 356 ± 14 µM

CN(C)c1ncc(/C=C/C(=O)Nc2ccccc2C(N)=O)cn1 [SN-I-271S]
MIC50 (S. mutans; [5]): > 300 µM | IC50 (S. mutans biofilm; [6]): 12.8 µM

NC(=O)c1ccccc1NC(=O)c1ccc2ncsc2c1 [SN-I-271U]
MIC50 (S. mutans; [5]): > 300 µM | IC50 (S. mutans biofilm; [6]): 36.1 µM

O=C(O)c1ccc(NC(=O)c2cc3cc([N+](=O)[O-])ccc3s2)cc1 [SN-I-272OH]
MIC50 (S. mutans; [5]): > 300 µM | IC50 (S. mutans biofilm; [6]): 15.6 µM

O=C(O)c1ccc(NC(=O)c2cc3ccccc3s2)cc1 [SN-I-272VH]
MIC50 (S. mutans; [5]): > 300 µM | IC50 (S. mutans biofilm; [6]): 180 µM

NC(=O)c1ccccc1C(=O)Nc1cnc2ccccc2c1 [SN-I-285]
MIC50 (S. mutans; [5]): > 300 µM | IC50 (S. mutans biofilm; [6]): 102 µM

[N-]=[N+]=Nc1ccc(NC(=O)c2cc3cc([N+](=O)[O-])ccc3s2)cc1 [SN-I-287]
MIC50 (S. mutans; [5]): > 300 µM | IC50 (S. mutans biofilm; [6]): 250 µM

[N-]=[N+]=Nc1ccc(C(=O)Nc2ccccc2C(N)=O)cc1 [SN-I-288]
MIC50 (S. mutans; [5]): > 300 µM | IC50 (S. mutans biofilm; [6]): 212 µM

[N-]=[N+]=Nc1ccc2sc(C(=O)Nc3ccccc3C(N)=O)cc2c1 [SN-II-14]
MIC50 (S. mutans; [5]): > 300 µM | IC50 (S. mutans biofilm; [6]): 57.2 µM

COc1ccc(/C=C/C(=O)c2ccc(OC)c(OC)c2O)c(OC)c1 [SN-II-24-B6]
MIC50 (S. mutans; [7]): 231 ± 12 µM (≈ 79.4 µg/mL) | IC50 (S. mutans biofilm; [8]): 101 ± 3 µM

O=C(/C=C/c1ccc(O)cc1O)c1ccccc1O [SN-II-32]
MIC50 (S. mutans; [7]): 327 ± 24 µM (≈ 83.8 µg/mL) | IC50 (S. mutans biofilm; [8]): 250 ± 16 µM

O=C(/C=C/c1ccc(O)cc1O)c1ccc(O)cc1 [SN-II-49C]
MIC50 (S. mutans; [7]): 782 ± 96 µM (≈ 200 µg/mL) | IC50 (S. mutans biofilm; [8]): 77 ± 8 µM

NC(=O)c1cc(NC(=O)c2cc3cc([N+](=O)[O-])ccc3s2)cc(C(N)=O)c1 [SN-II-50]
MIC50 (S. mutans; [5]): > 300 µM | IC50 (S. mutans biofilm; [6]): 4.6 µM

NC(=O)c1cc(NC(=O)c2cc3cc([N+](=O)[O-])ccc3s2)ccc1[N+](=O)[O-] [SN-II-59]
MIC50 (S. mutans; [5]): > 300 µM | IC50 (S. mutans biofilm; [6]): 23.4 µM

O=c1c(O)c(-c2ccc(O)cc2O)oc2ccccc12 [SN-II-79]
MIC50 (S. mutans; [7]): 30 ± 1 µM (≈ 8.11 µg/mL) | IC50 (S. mutans biofilm; [8]): 65.9 ± 1 µM

Cl.NC(=O)c1ccccc1NC(=O)c1cc2cc(N)ccc2s1 [SN-II-81Cl]
Growth Inhibition MIC50 (S. mutans; Table 2, >300 = no inhibition up to 300 μM): >300^b μM | IC50 (S. mutans biofilm; [6]): 9.6 µM

NC(=O)c1ccccc1NC(=O)c1cc2cc(N)ccc2s1 [SN-II-81F]
MIC50 (S. mutans; [5]): > 300 µM | IC50 (S. mutans biofilm; Table 2, read-out: Biofilm Inhibition IC50): 56.4 µM

O=c1c(O)c(-c2cc(O)c(O)cc2O)oc2ccccc12 [SN-II-92]
MIC50 (S. mutans; [7]): 63.1 ± 4 µM (≈ 18.1 µg/mL) | IC50 (S. mutans biofilm; [8]): 19.8 ± 2 µM

COC(=O)c1cccc(NC(=O)c2cc3cc(N)ccc3o2)c1 [SN-II-105]
MIC50 (S. mutans; [5]): 347 µM (≈ 108 µg/mL) | IC50 (S. mutans biofilm; [6]): 5.5 µM

COC(=O)c1cccc(NC(=O)c2cc3cc(N/C(=N\C(=O)OC(C)(C)C)NC(=O)OC(C)(C)C)ccc3o2)c1 [SN-II-106]
MIC50 (S. mutans; [5]): 29 µM (≈ 16 µg/mL) | IC50 (S. mutans biofilm; [6]): 14 µM

COC(=O)c1cccc(NC(=O)c2cc3cc(NC(=N)N)ccc3o2)c1 [SN-II-107]
MIC50 (S. mutans; [5]): 45.9 µM (≈ 16.2 µg/mL) | IC50 (S. mutans biofilm; [6]): 16.6 µM

O=C1/C(=C/c2cc(O)c(O)cc2O)Oc2ccccc21 [SN-II-110]
MIC50 (S. mutans; [7]): 157 ± 13 µM (≈ 42.3 µg/mL) | IC50 (S. mutans biofilm; [8]): 10.2 ± 2 µM

O=C(/C=C/c1ccc(O)cc1)c1ccccc1O [SN-II-113]
MIC50 (S. mutans; [7]): > 300 µM | IC50 (S. mutans biofilm; [8]): 213 ± 7 µM

COc1cc(O)ccc1/C=C1\Oc2ccccc2C1=O [SN-II-115]
MIC50 (S. mutans; [7]): 153 ± 21 µM (≈ 41 µg/mL) | IC50 (S. mutans biofilm; [8]): 133 ± 24 µM

O=C1/C(=C/c2ccc(O)c(O)c2)Oc2ccccc21 [SN-II-118]
MIC50 (S. mutans; [7]): 263 ± 14 µM (≈ 66.8 µg/mL) | IC50 (S. mutans biofilm; [8]): 280 ± 35 µM
